Experimental data published in patent US20040197268A1, “Method of imaging amyloid deposits using substituted rhodanine derivatives” (priority 1999, published 2004).
Values joined by “and” are separate entries in the source; they are usually repeats but may differ in a detail not shown here. Equal values may be shown once.

Experiments:
[1] = target: T1, beta amyloid peptide Aβ(1-40) (Homo sapiens, UniProt P05067); test: BAPA (Beta-Amyloid Peptide Aggregation), pH 6.0; format: biochemical; conditions: Aβ(1-40) 33 μM, pH 6.0, 2 to 4 hours at room temperature, filtration
T1 construct: 0.5 mg/mL AP (140) peptide in 20% HFIP+0.1 μL/assay radioiodinated ^125I Aβ(1-40)
T1 sequence (P05067 672-711 limits assumed): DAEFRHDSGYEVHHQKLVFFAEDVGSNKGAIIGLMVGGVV
Summary of the method: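 HFIP-monomerised Aβ(1-40) with ^125I Aβ(1-40) tracer in 50 mM phosphate pH 6.0, DMSO <1%, incubated 2 to 4 h at room temperature. Aggregates collected by 0.2 μm filtration and counted by scintillation, background-corrected.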

Aβ(1-40) [2] = target: T2, Aβ(1-40) (Homo sapiens, UniProt P05067); test: BASST (Beta-Amyloid Self-Seeding, ThioflavinT), inhibitors of self-seeded amyloid fibril growth; format: biochemical; conditions: 30 μM soluble Aβ(1-40), pH 7.5, 37° C., 3 to 5 hours, thioflavin T fluorescence
T2 construct: Soluble Aβ(1-40) peptide (Bachem, Torrance, Calif.); purchased Bachem, Torrance, Calif
T2 sequence (P05067 672-711 limits assumed): as above
Summary of the method: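 Self-seeded soluble Aβ(1-40) at 30 μM was mixed on ice with compound (3-fold dilutions, top 100 μM final; DMSO <1%) in pH 7.5 phosphate buffer with 1 M urea. After 10 min on ice, mixtures were incubated 3 to 5 hours at 37° C. Fibril growth was read as thioflavin T fluorescence (ex 440/em 485).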

Aβ(1-40) [3] = target: T2, Aβ(1-40); test: BASSR (Beta-Amyloid Self-Seeding Radioassay), inhibitors of self-seeded amyloid fibril growth; format: biochemical; conditions: 30 μM soluble Aβ(1-40) + 125I-labeled Aβ(1-40), pH 7.5, 37° C., 3 to 5 hours, filtration
Summary of the method: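 Self-seeding growth of fibrils from 30 μM soluble human Aβ(1-40) plus ^125I-labeled Aβ(1-40) was run in 50 mM sodium phosphate pH 7.5, 100 mM NaCl, 1 M urea, with compound as serial 3-fold dilutions from 100 μM final, DMSO <1%. After 10 min on ice and 3 to 5 hours at 37° C., fibrils were filter-collected and radioactivity counted.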

Aβ(1-42) = target: T3, Aβ(1-42) (Homo sapiens, UniProt P05067); test: BATYM Assay (Aβ(1-42) aggregation, Thioflavin T fluorescence); format: biochemical; conditions: Aβ 1-42 final concentration 100 μM, PBS pH 7.4, 37° C., 1 day, ThT fluorescence
T3 construct: Required Aβ(1-42)(California Peptide) was dried from its hexafluoroisopropanol (HFIP) stock solution; purchased California Peptide
T3 sequence (P05067 672-713 limits assumed): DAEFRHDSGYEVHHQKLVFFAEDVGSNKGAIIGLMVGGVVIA
Summary of the method: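 HFIP-dried Aβ(1-42), redissolved in DMSO/PBS pH 7.4 and filtered, was incubated at 100 μM final with compound (2% DMSO) for 1 day at 37° C. Aggregation read by ThT (30 μM, glycine-NaOH pH 8.5) fluorescence, ex 440/em 485 nm; inhibition corrected for compound blank, IC50 by curve fit, two experiments in triplicate.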

Row | IC50 [1] [µM] | IC50 (Aβ(1-40) [2]) | IC50 (Aβ(1-40) [3]) | melting point [°C] | IC50 (Aβ(1-42)) [µM] | SMILES
1 | 69 | 0.3 µM | 21 µM | 183 | 2.19 | CCCCN(CCCC)c1ccc(/C=C2\SC(=S)N(CCS(=O)(=O)NC(=O)c3ccccc3)C2=O)cc1 [Example 28, (Z) 2-[5-(4-Dibutylamino-benzylidene)-4-oxo-2-thioxo-thiazolidin-3-yl]-ethanesulfonic acid benzoylamide]
2 | 37 | 1 µM and 0.1 µM | > 100 µM and 21 µM | 197 | 2.86 | CCCC1CCN(c2ccc(/C=C3\SC(=S)N(CC(=O)NS(=O)(=O)c4ccc(F)cc4)C3=O)cc2)CC1 [Example 39, (Z) 4-Fluoro-N-(2-{4-oxo-5-[4-(4-propyl-piperidin-1-yl)-benzylidene]-2-thioxo-thiazolidin-3-yl}-acetyl)-benzenesulfonamide]
3 | > 100 | 0.3 µM | 8 µM | 158 to 162 | 2.24 | CCCCCCN(C)c1ccc(/C=C2\SC(=S)N(CCS(=O)(=O)NC(=O)C(F)(F)F)C2=O)cc1 [Example 3, (Z) 2-{5-[4-(Hexyl-methyl-amino)-benzylidene]-4-oxo-2-thioxo-thiazolidin-3-yl}-ethanesulfonic acid trifluoroacetyl-amide]
4 | > 60 | 0.3 µM | > 100 µM | 248 | 2.26 | O=C(NS(=O)(=O)CCN1C(=O)/C(=C/c2ccc(N3CCC4CCCCC4C3)cc2)SC1=S)c1ccc(F)cc1 (stereo not drawn) [Example 30, (Z) 2-{5-[4(Octahydro-isoquinolin-2-yl)benzylidene]-4-oxo-2′-thioxo-thiazolidin-3-yl}-ethanesulfonic acid 4-fluoro-benzoylamide]
5 | 8 | 1.1 µM | > 100 µM | 150 to 153 | 2.51 | CCCCCCN(C)c1ccc(/C=C2\SC(=S)N(CCNS(C)(=O)=O)C2=O)cc1 [Example 10, (Z) N-(2-{5-[4-(Hexyl-methyl-amino)-benzylidene]-4-oxo-2-thioxo-thiazolin-3-yl}-ethyl)-methanesulfonamide]
6 | 6 | 3 µM | > 100 µM | 228 to 230 | 8.26 | CCCCCCN(C)c1ccc(/C=C2\SC(=S)N(CC(=O)NC)C2=O)cc1 [Example 4, (Z) 2-{5-[4(Hexyl-methyl-amino)-benzylidene]-4-oxo-2-thioxo-thiazolidin-3-yl}-N-methyl-acetamide]
7 | 122 | 0.6 µM | 5 µM | 228 to 230 | 1.88 | CCCCN(CCCC)c1ccc(/C=C2\SC(=S)N(CC(=O)NS(=O)(=O)C(F)(F)F)C2=O)cc1 [Example 18, (Z) N-{[5-(4-Dibutylamino-benzylidene)-4-oxo-2-thioxo-thiazolidin-3-yl]-acetyl}-C,C,C-trifluoro-methanesulfonamide]
8 | 2 | 1 µM and 1.5 µM | 10 µM and 5 µM | 208 to 210 | 1.87 | CCCCCN(CCCCC)c1ccc(/C=C2\SC(=S)N(Cc3nnn[nH]3)C2=O)cc1 [Example 17]
9 | > 60 | 0.4 µM | 50 µM | 254 | 3.83 | CCCC1CCN(c2ccc(/C=C3\SC(=S)N(CC(=O)NS(C)(=O)=O)C3=O)cc2)CC1 [Example 37, (Z) N-(2-{4-Oxo-5-[4-(4-propyl-piperidin-1-yl)-benzylidene]-2-thioxo-thiazolidin-3-yl}-acetyl)methanesulfonamide]
